Laboratory results as given in patent US20250122219A1 (priority 2023, published 2025).
Where two headings read alike, the source gives them in different places.

Tests used:
HIV-1 (IIIB) = assay: Antiviral assay in MT-4 cells; format: cell-based
Protocol: (§1) Compounds were tested in a high-throughput 384-well assay format for their ability to inhibit the replication of HIV-1 (IIIB) in MT-4 cells. Compounds were serially diluted (1.3) in DMSO on 384-well polypropylene plates and further diluted 200-fold into complete RPMI media (10% FBS, 1% P/S) using the Biotek Micro Flow and Labcyte ECHO acoustic dispenser. Each plate contained up to 8 test compounds, with negative (No Drug Control) and 5 μM AZT positive controls. MT-4 cells were pre-infected with 10 μL of either RPMI (mock-infected) or a fresh 1:250 dilution of HIV-1 IIIB concentrated virus stock. Infected and uninfected MT-4 cells were further diluted in complete RPMI media and added to each plate using a Micro Flow dispenser. After 5 days incubation in a humidified and temperature controlled incubator (37° C.), Cell Titer Glo (Promega) was added to the assay plates and chemiluminescence read using an Envision plate-reader.

[1] = Cytotoxicity assay in MT-4 cells; format: cell-based; conditions: human; uninfected MT-4 cells, 5 days incubation, Cell Titer Glo; read-out: MT4 CC50
Protocol: as §1
Assays were performed as above except uninfected MT-4 cells were added to each well containing test compound. In addition, […] puromycin was added to the last column of each assay plate to assess a base level of cytotoxicity.

[2] = Human immunodeficiency virus 1, MT4, 120 h, HIV-1 IIIB in MT-4 cells, 5 days incubation, Cell Titer Glo, read-out: MT4 EC50

Structure (SMILES)	EC50 (HIV-1 (IIIB); [2]) [nM]	CC50 at 5 days [1] [µM]	EC50 (HIV-1 (IIIB); Human immunodeficiency virus 1, IIIB, MT4, 120 h, read-out: MT4 EC50 (nM)) [nM]
COCCOC(=O)Oc1c2n(cc(C(=O)NCc3ccc(F)cc3F)c1=O)[C@@H]1CN(C2=O)[C@@H](C)CC[C@]12CC(OC)=NO2 [Example 1, (3′S,5S,7′R)-10′-((2,4-difluorobenzyl)carbamoyl)-3-methoxy-3′-methyl-1′,11′-dioxo-1′,4′,5′,11′-tetrahydro-3′H,4H,7′H-spiro[isoxazole-5,6′-[2,7]methanopyrido[1,2-a][1],4diazonin]-12′-yl (2-methoxyethyl) carbonate]	1.48	10.9	
COCCOCCOC(=O)Oc1c2n(cc(C(=O)NCc3ccc(F)cc3F)c1=O)[C@@H]1CN(C2=O)[C@@H](C)CC[C@]12CC(OC)=NO2 [Example 2, (3′S,5S,7′R)-1O′-((2,4-difluorobenzyl)carbamoyl)-3-methoxy-3′-methyl-1′,11′-dioxo-1′,4′,5′,11′-tetrahydro-3′H,4H,7′H-spiro[isoxazole-5,6′-[2,7]methanopyrido[1,2-a][1,4]diazonin]-12′-yl (2-(2-methoxyethoxy)ethyl) carbonate]		11.5	0.79
COCCOCCOC(=O)OCOc1c2n(cc(C(=O)NCc3ccc(F)cc3F)c1=O)[C@@H]1CN(C2=O)[C@@H](C)CC[C@]12CC(OC)=NO2 [Example 4, (((3′S,5S,7′R)-10′-((2,4-difluorobenzyl)carbamoyl)-3-methoxy-3′-methyl-1′,11′-dioxo-1′,4′,5′,11′-tetrahydro-3′H,4H,7′H-spiro[isoxazole-5,6′-[2,7]methanopyrido[1,2-a][1,4]diazonin]-12′-yl)oxy)methyl (2-(2-methoxyethoxy)ethyl) carbonate]	15.4	≥ 50	
CCCCCCCCCCCCCCCCCC(=O)Oc1c2n(cc(C(=O)NCc3ccc(F)cc3F)c1=O)[C@@H]1CN(C2=O)[C@@H](C)CC[C@]12CC(OC)=NO2 [Example 6, (3′S,5S,7′R)-10′-((2,4-difluorobenzyl)carbamoyl)-3-methoxy-3′-methyl-1′,11′-dioxo-1′,4′,5′,11′-tetrahydro-3′H,4H,7′H-spiro[isoxazole-5,6′-[2,7]methanopyrido[1,2-a][1,4]diazonin]-12′-yl stearate]	9.48	≥ 50	
CCCCC/C=C\C/C=C\CCCCCCCC(=O)Oc1c2n(cc(C(=O)NCc3ccc(F)cc3F)c1=O)[C@@H]1CN(C2=O)[C@@H](C)CC[C@]12CC(OC)=NO2 [Example 7, (3′S,5S,7′R)-10′-((2,4-difluorobenzyl)carbamoyl)-3-methoxy-3′-methyl-1′,11′-dioxo-1′,4′,5′,11′-tetrahydro-3′H,4H,7′H-spiro[isoxazole-5,6′-[2,7]methanopyrido[1,2-a][1,4]diazonin]-12′-yl (9Z,12Z)-octadeca-9,12-dienoate]	7.46	≥ 50	
COCCOC(=O)Oc1c2n(cc(C(=O)NCc3ccc(F)cc3F)c1=O)[C@@H]1CN(C2=O)[C@@H](C)CC[C@]12CC(C)=NO2 [Example 9, (3′S,5S,7′R)-10′-((2,4-difluorobenzyl)carbamoyl)-3,3′-dimethyl-1′,11′-dioxo-1′,4′,5′,11′-tetrahydro-3′H,4H,7′H-spiro[isoxazole-5,6′-[2,7]methanopyrido[1,2-a][1,4]diazonin]-12′-yl (2-methoxyethyl) carbonate]	1.61	19.6	
CCCCCCCCCCCCCC(=O)Oc1c2n(cc(C(=O)NCc3ccc(F)cc3F)c1=O)[C@@H]1CN(C2=O)[C@@H](C)CC[C@]12CC(C)=NO2 [Example 13, (3′S,5S,7′R)-10′-((2,4-difluorobenzyl)carbamoyl)-3,3′-dimethyl-1′,11′-dioxo-1′,4′,5′,11′-tetrahydro-3′H,4H,7′H-spiro[isoxazole-5,6′-[2,7]methanopyrido[1,2-a][1,4]diazonin]-12′-yl tetradecanoate]	4.84	13.4	
CCCCCCCCCCCCCCCC(=O)Oc1c2n(cc(C(=O)NCc3ccc(F)cc3F)c1=O)[C@@H]1CN(C2=O)[C@@H](C)CC[C@]12CC(C)=NO2 [Example 14, (3′S,5S,7′R)-10′-((2,4-difluorobenzyl)carbamoyl)-3,3′-dimethyl-1′,11′-dioxo-1′,4′,5′,11′-tetrahydro-3′H,4H,7′H-spiro[isoxazole-5,6′-[2,7]methanopyrido[1,2-a][1,4]diazonin]-12′-yl palmitate]	6.46	≥ 50	
CC1=NO[C@@]2(CC[C@H](C)N3C[C@H]2n2cc(C(=O)NCc4ccc(F)cc4F)c(=O)c(OCOC(=O)C(C)(C)C)c2C3=O)C1 [Example 18, (((3′S,5S,7′R)-10′-((2,4-difluorobenzyl)carbamoyl)-3,3′-dimethyl-1′,11′-dioxo-1′,4′,5′,11′-tetrahydro-3′H,4H,7′H-spiro[isoxazole-5,6′-[2,7]methanopyrido[1,2-a][1,4]diazonin]-12′-yl)oxy)methyl pivalate]	2.76	20.1	
CCCCCCCCCCCCCCOC(=O)OCOc1c2n(cc(C(=O)NCc3ccc(F)cc3F)c1=O)[C@@H]1CN(C2=O)[C@@H](C)CC[C@]12CC(OC)=NO2 [Example 193, (((3′S,5S,7′R)-10′-((2,4-difluorobenzyl)carbamoyl)-3-methoxy-3′-methyl-1′,11′-dioxo-1′,4′,5′,11′-tetrahydro-3′H,4H,7′H-spiro[isoxazole-5,6′-[2,7]methanopyrido[1,2-a][1,4]diazonin]-12′-yl)oxy)methyl tetradecyl carbonate]		≥ 50	
CC1=NO[C@@]2(CC[C@H](C)N3C[C@H]2n2cc(C(=O)NCc4ccc(F)cc4F)c(=O)c(OCOC(=O)OCCCCCCC(C)C)c2C3=O)C1 [Example 209, (((3′S,5S,7′R)-10′-((2,4-difluorobenzyl)carbamoyl)-3,3′-dimethyl-1′,11′-dioxo-1′,4′,5′,11′-tetrahydro-3′H,4H,7′H-spiro[isoxazole-5,6′-[2,7]methanopyrido[1,2-a][1,4]diazonin]-12′-yl)oxy)methyl (7-methyloctyl) carbonate]		≥ 50	
COC1=NO[C@@]2(CC[C@H](C)N3C[C@H]2n2cc(C(=O)NCc4ccc(F)cc4F)c(=O)c(OCOC(=O)OCCCCCCC(C)C)c2C3=O)C1 [Example 210, (((3′S,5S,7′R)-10′-((2,4-difluorobenzyl)carbamoyl)-3-methoxy-3′-methyl-1′,11′-dioxo-1′,4′,5′,11′-tetrahydro-3′H,4H,7′H-spiro[isoxazole-5,6′-[2,7]methanopyrido[1,2-a][1,4]diazonin]-12′-yl)oxy)methyl (7-methyloctyl) carbonate]		≥ 50	
COC[C@H](C)OC(=O)OCOc1c2n(cc(C(=O)NCc3ccc(F)cc3F)c1=O)[C@@H]1CN(C2=O)[C@@H](C)CC[C@]12CC(C)=NO2 [Example 215, (((3′S,5S,7′R)-10′-((2,4-difluorobenzyl)carbamoyl)-3,3′-dimethyl-1′,11′-dioxo-1′,4′,5′,11′-tetrahydro-3′H,4H,7′H-spiro[isoxazole-5,6′-[2,7]methanopyrido[1,2-a][1,4]diazonin]-12′-yl)oxy)methyl ((S)-1-methoxypropan-2-yl) carbonate]		≥ 50	
COC[C@H](C)OC(=O)OCOc1c2n(cc(C(=O)NCc3ccc(F)cc3F)c1=O)[C@@H]1CN(C2=O)[C@@H](C)CC[C@]12CC(OC)=NO2 [Example 216, (((3′S,5S,7′R)-10′-((2,4-difluorobenzyl)carbamoyl)-3-methoxy-3′-methyl-1′,11′-dioxo-1′,4′,5′,11′-tetrahydro-3′H,4H,7′H-spiro[isoxazole-5,6′-[2,7]methanopyrido[1,2-a][1,4]diazonin]-12′-yl)oxy)methyl ((S)-1-methoxypropan-2-yl) carbonate]		≥ 50	
CO[C@H](C)COC(=O)OCOc1c2n(cc(C(=O)NCc3ccc(F)cc3F)c1=O)[C@@H]1CN(C2=O)[C@@H](C)CC[C@]12CC(C)=NO2 [Example 217, (((3′S,5S,7′R)-10′-((2,4-difluorobenzyl)carbamoyl)-3,3′-dimethyl-1′,11′-dioxo-1′,4′,5′,11′-tetrahydro-3′H,4H,7′H-spiro[isoxazole-5,6′-[2,7]methanopyrido[1,2-a][1,4]diazonin]-12′-yl)oxy)methyl ((R)-2-methoxypropyl) carbonate]		24.6	
CO[C@@H](C)COC(=O)OCOc1c2n(cc(C(=O)NCc3ccc(F)cc3F)c1=O)[C@@H]1CN(C2=O)[C@@H](C)CC[C@]12CC(C)=NO2 [Example 219, (((3′S,5S,7′R)-10′-((2,4-difluorobenzyl)carbamoyl)-3,3′-dimethyl-1′,11′-dioxo-1′,4′,5′,11′-tetrahydro-3′H,4H,7′H-spiro[isoxazole-5,6′-[2,7]methanopyrido[1,2-a][1,4]diazonin]-12′-yl)oxy)methyl ((S)-2-methoxypropyl) carbonate]		33.9	
COC1=NO[C@@]2(CC[C@H](C)N3C[C@H]2n2cc(C(=O)NCc4ccc(F)cc4F)c(=O)c(OCOC(=O)OC[C@H](C)OC)c2C3=O)C1 [Example 220, (((3′S,5S,7′R)-10′-((2,4-difluorobenzyl)carbamoyl)-3-methoxy-3′-methyl-1′,11′-dioxo-1′,4′,5′,11′-tetrahydro-3′H,4H,7′H-spiro[isoxazole-5,6′-[2,7]methanopyrido[1,2-a][1,4]diazonin]-12′-yl)oxy)methyl ((S)-2-methoxypropyl) carbonate]		41.6	
